From patent US3950418A, “Vitamin A acid amides” (Hoffmann-La Roche Inc., priority 1970, dated 1976) come the findings set out here.

In general, LD50 refers to the dose expected to kill half of the subjects tested.

Common to all, as to format: in vivo
Series [1] in a line: Acute toxicity, testing in the mouse. To be noted: in vivo, in rape oil; for LD50 at 240 h: 10 days. The source says: (§1) Toxicity tests carried out in mice and rats gave the following results for acute toxicity:
(§2) 1. Vitamin A acid ethyl amide in rape oil (per os and intraperitoneal administration)
(§3) 2. Vitamin A acid ethanol amide in rape oil (intraperitoneal administration)
(§4) 3. Vitamin A acid diethyl amide, vitamin A acid n-butyl amide, vitamin A acid phenyl amide, vitamin A acid isopropyl amide, or vitamin A acid methyl amide in rape oil (intraperitoneal administration)

The subject of another series is mouse. Put plainly: Acute toxicity, testing in the mouse. To be noted: in rape oil.
Description: as §1, §2, §3, §4

A short description of series [2]: Acute toxicity, testing in the rat. To be noted: in vivo, in rape oil, per os and intraperitoneal administration.
Description: as §1
(§5) Vitamin A acid ethyl amide in rape oil (per os and intraperitoneal administration)

In a further series the test system is rat. Description: Acute toxicity, testing in the rat. As to conditions: in rape oil, per os and intraperitoneal administration.
Description: as §1, §5

Where [3] appears, read: ip, intraperitoneal administration.
[4] abbreviates: intraperitoneal administration, 24 hrs.
[5] abbreviates: intraperitoneal administration, 10 days.
The mark [6] stands for this setting: per os and intraperitoneal administration.
Setting [7] is: per os and intraperitoneal administration, 20 days.
Setting [8] is: per os and intraperitoneal administration, 24 hrs.
[9] abbreviates: per os and intraperitoneal administration, 10 days.

In series [1] (setting [3]), `CCN(CC)C(=O)/C=C(C)/C=C/C=C(C)/C=C/C1=C(C)CCCC1(C)C` [Vitamin A acid diethyl amide, vitamin A acid diethyl amide] yielded an LD50 at 24 h greater than 4000 mg/kg and an LD50 at 240 h greater than 4000 mg/kg. In the series on mouse (setting [4]), this molecule returned an LD10 greater than 4000 mg/kg and an LD90 greater than 4000 mg/kg. In the series with mouse (setting [5]), this molecule yielded an LD10 greater than 4000 mg/kg and an LD90 greater than 4000 mg/kg.

In series [1] (setting [3]), `CC1=C(/C=C/C(C)=C/C=C/C(C)=C/C(=O)NCCO)C(C)(C)CCC1` [Vitamin A acid ethanol amide, vitamin A acid ethanol amide] displayed an LD50 at 24 h greater than 4000 mg/kg and an LD50 at 240 h of 1000 mg/kg. In the series with mouse (setting [4]), this molecule gave an LD10 greater than 4000 mg/kg and an LD90 greater than 4000 mg/kg. In the series on mouse (setting [5]), this molecule returned an LD10 of 710 mg/kg and an LD90 of 1400 mg/kg.

Regarding `CCNC(=O)/C=C(C)/C=C/C=C(C)/C=C/C1=C(C)CCCC1(C)C` [Vitamin A acid ethyl amide, vitamin A acid monoethyl amide], the LD50 at 24 h in series [2] (24 hrs.) and in series [1] (setting [6]) was greater than 4000 mg/kg in each case. The median lethal dose (LD50) at 240 h in series [2] (10 days) and in series [1] (setting [6]) was greater than 4000 mg/kg each time. Further, the LD10 in the series on rat (24 hrs.), with rat (10 days), in the series on mouse (setting [8]), in the series on mouse (setting [9]) and with mouse (setting [7]) was greater than 4000 mg/kg in each case. Moreover, the LD90 in the series on rat (24 hrs.), in the series on rat (10 days), with mouse (setting [8]), with mouse (setting [9]) and in the series with mouse (setting [7]) was greater than 4000 mg/kg throughout. The molecule further had an LD50 at 480 h in series [1] (setting [7]) greater than 4000 mg/kg.

In series [1] (setting [3]), `CC1=C(/C=C/C(C)=C/C=C/C(C)=C/C(=O)NC(C)C)C(C)(C)CCC1` [vitamin A acid isopropyl amide] displayed an LD50 at 24 h greater than 4000 mg/kg and an LD50 at 240 h greater than 4000 mg/kg. Moreover, in the series on mouse (setting [4]), the LD10 is listed as greater than 4000 mg/kg and the LD90 is greater than 4000 mg/kg. In the series on mouse (setting [5]), this molecule gave an LD10 greater than 4000 mg/kg and an LD90 greater than 4000 mg/kg.

In series [1] (setting [3]), `CNC(=O)/C=C(C)/C=C/C=C(C)/C=C/C1=C(C)CCCC1(C)C` [vitamin A acid methyl amide] registered an LD50 at 24 h greater than 4000 mg/kg and an LD50 at 240 h greater than 4000 mg/kg. In the series on mouse (setting [4]), this molecule yielded an LD10 greater than 4000 mg/kg and an LD90 greater than 4000 mg/kg. In the series with mouse (setting [5]), this molecule displayed an LD10 greater than 4000 mg/kg and an LD90 greater than 4000 mg/kg.

Consider `CCCCNC(=O)/C=C(C)/C=C/C=C(C)/C=C/C1=C(C)CCCC1(C)C` [vitamin A acid n-butyl amide], for which, in series [1] (setting [3]), the LD50 at 24 h was greater than 4000 mg/kg and the LD50 at 240 h was greater than 4000 mg/kg. Also, in the series with mouse (setting [4]), the LD10 is greater than 4000 mg/kg and the LD90 is recorded as greater than 4000 mg/kg. Also, in the series on mouse (setting [5]), the LD10 is on record as greater than 4000 mg/kg and the LD90 is on record as greater than 4000 mg/kg.

With `CC1=C(/C=C/C(C)=C/C=C/C(C)=C/C(=O)Nc2ccccc2)C(C)(C)CCC1` [vitamin A acid phenyl amide], in series [1] (setting [3]), the LD50 at 24 h is greater than 4000 mg/kg and the LD50 at 240 h is greater than 4000 mg/kg. Moreover, in the series on mouse (setting [4]), the LD10 is listed as greater than 4000 mg/kg and the LD90 is recorded as greater than 4000 mg/kg. In the series on mouse (setting [5]), this molecule yielded an LD10 greater than 4000 mg/kg and an LD90 greater than 4000 mg/kg.
